From US7432286B1, “Pharmaceutically active sulfonyl hydrazide derivatives” (Laboratories Serono SA, priority 1999, dated 2008)

How the values were obtained:
GST-JNK3 = GST-JNK3 (Homo sapiens, UniProt P53779); assay: JNK3 in vitro assay (SPA, GST-c-Jun phosphorylation); format: biochemical; conditions: recombinant pre-activated GST-JNK3, 2 μM ATP
Protocol: (§1) JNK 2 and 3 in vitro assays: JNK3 and/or 2 assays are performed in 96 well MTT plates, by incubation of 0.5 μg of recombinant, pre-activated GST-JNK3 or GST-JNK2 with 1 μg of recombinant, biotinylated GST-c-Jun and 2 μM ^33γ-ATP (2 nCi/μl), in the presence or absence of sulfonamide inhibitors if formula I and in a reaction volume of 50 μl containing 50 mM Tris-HCl, pH 8.0; 10 mM MgCl2; 1 mM Dithiothreitol, and 100 μM NaVO4. The incubation is performed for 120 min. at R.T and stopped upon addition of 200 μl of a solution containing 250 μg of Streptavidine-coated SPA beads (Amersham, Inc.)*, 5 mM EDTA, 0.1% Triton X-100 and 50 μM ATP, in phosphate saline buffer. After incubation for 60 minutes at RT, beads are sedimented by centrifugation at 1500×g for 5 minutes, resuspended in 200 μl of PBS containing 5 mM EDTA, 0.1% Triton X-100 and 50 μM ATP and the radioactivity measured in a scintillation β counter, following sedimentation of the beads as described above. By substituting GST-c Jun for biotinylated GST-1ATF2 or myelin basic protein, this assay can be used to measure inhibition of preactivated p38 and ERK MAP Kinases, respectively.
(§2) The values indicated in respect of JNK2 and 3, p38 and ERK2 refer to the IC50 (μM), i.e. the amount necessary to achieve 50% inhibition of said target (e.g. JNK2). From the above table it could be derived that said test compounds according to formula I do have a significant effect both on JNK2 and 3, but virtually no effect onto p38 and ERK2, thus delivering a quite selective inhibitory effect.

Hlr c-Jun HeLa cells = assay: C-Jun reporter assay (MEKK1 induced, Dual-Luciferase); format: cell-based; conditions: Homo sapiens
Protocol: Hlr c-Jun HeLa cells are cultured in DMEM High Glc supplemented with 10% FCS (Sigma), 2 mM Glutamine (Gibco), P/S, Hygromycin b 100 μg/mL and G418 250 μg/mL
The cell suspension are diluted with medium to give about 3.5×10^6 cells/mL and […] of cell suspension are put onto 210 cm culture dishes containing 9 mL of culture medium. The plates are incubated at 37° C. in a humidified atmosphere of 5% CO2 in air
• Control: 0.2 μg pTK Renilla, […] pBluescript KS, 500 μl OPTIMEM (GIBCO), 18 μl Fugene 6 • Induced: 0.1 μg pMEKK1, 0.2 μg pTK Renilla, 5.7 μg pBluescript KS, 500 μl OPTIMEM (GIBCO), 18 μl Fugene 630′ RT
The transfection mixture is added to the plated cells. The plates are incubated over night at 37° C. in a humidified atmosphere of 5% CO2 in air
A 96 wells plate containing 100 μl of culture medium per well is prepared Negative control (vehicle): 2 μl of DMSO is added to the 100 μl (in triplicate). Compound: 2 μl of Hit compound stock dilution are added to the 100 μl (in triplicate). The transfected cells are trypsinised and ressuspend in 12 mL of culture medium. 100 μl of the dilution are added to each of the 96 wells plate.
The plate is incubated over night at 37° C. in a humidified atmosphere of 5% CO2 in air
The medium is removed from the plate and the cells washed two times with 100 μl PBS Completely remove the rinse solution before applying PLB reagent. Dispense into each culture well […] of 1X PLB. Place the culture plates on a rocking platform or orbital shaker with gentle
rocking/shaking to ensure complete and even coverage of the cell monolayer with 1X PLB. Rock the culture plates at room temperature for 15 minutes. Transfer 20 μl of the lysate into a white opaque 96 wells plate. Read in a luminometer. • Inject 50 μl of Luciferase Assay Reagent II wait 5″, read 10″ • Inject 50 μl of Stop & Glo® Reagent wait 5″, read 10″
Check RLU Luciferase/RLU Renilla*1000

ERK2 = ERK2 (Homo sapiens, UniProt P28482); assay: ERK2 in vitro kinase assay (SPA, myelin basic protein substrate); format: biochemical; conditions: preactivated ERK
Protocol: as §1, §2

GST-JNK2 = GST-JNK2 (Homo sapiens, UniProt P45984); assay: JNK2 in vitro assay (SPA, GST-c-Jun phosphorylation); format: biochemical; conditions: recombinant pre-activated GST-JNK2, 2 μM ATP
Protocol: as §1, §2

p38 = p38 (Homo sapiens, UniProt Q16539); assay: p38 in vitro kinase assay (SPA, GST-ATF2 substrate); format: biochemical; conditions: preactivated p38
Protocol: as §1, §2

[1] = test system: IL-2 release by Jurkat cells; assay: IL-2 release assay (PMA+Ionomycine stimulated, ELISA); format: cell-based; conditions: Homo sapiens, 24 hours, read-out: % Inhibition of IL2 Production @ 3 uM
Protocol: Jurkat cells, a human T cell leukemia cell line (American Type Culture Collection # TIB 152) were cultured in RPMI 1640 medium (Gibco, BRL) supplemented with 10% of heatactivated FCS, Glutamine and Penstrep. The cell suspension in the medium is diluted to give 2.10^6 cells/mL. The cells were plated (2.10^5 cells/well) on a 96-well plate containing different concentration of test compound (final concentration of compounds, 10, 3, 1, 0.3, 0.1 μM). This mixture is incubated 30 minutes at 37° C. in a humidified CO2 atmosphere. Cells were then treated with 10 ul PMA+Ionomycine (0.1 μM and 1 μM final concentration) in all wells except negative control. In wells without compounds, 10 μl of RPMI 2% DMSO (=0.1% final) is added. Cells are incubated 24 hours at 37° C. and then the supernatant harvested (freeze at −20° C. if not used the same day) prior to performing IL-2 ELISA test on the supernatant.
IL-2 release into the medium by PMA+Iono-stimulated Jurkat cells, in presence or absence of test compounds is assayed by ELISA. Following the procedure described below
Transfer 100 μl capture antibody diluted in PBS at 5 μg/mL into a 96 well ELISA plate and incubate overnight at room temperature.
Aspirate each well and wash 3 times with Wash buffer. After the last wash, damp the plate.
1. Saturate with 200 μl PBS-10% FCS. Incubate 1 hour at room temperature.
2. Repeat the wash step 2.
• 1. Add 100 μl of sample or standard (2000, 1000, 500, 250, 125, 62.5, 31.25 pg/mL) and incubate 2 hours at room temperature. • 2. Wash 3 times. • 3. Add 100 μl of biotinylated anti-human IL-2 at 12.5 ng/mL. Incubate 2 hours at room temperature. • 4. Wash 3 times. • 5. Add 100 μl streptavidin-HRP (Zymed #43-4323) at 1:10,000. Incubate 30 minutes at room temperature. • 6. Wash 3 times • 7. Add 100 μl substrate solution (citric acid/Na2HPO4 (1:1)+H2O2 1:2000+OPD). Incubate 20-30 minutes at room temperature. • 8. Add 50 μl of stop solution to each well. • 9. Determine optical density using a microtiter plate reader set to 450 nm with correction at 570 nm.

GST-JNK2, sequence (P45984 whole entry): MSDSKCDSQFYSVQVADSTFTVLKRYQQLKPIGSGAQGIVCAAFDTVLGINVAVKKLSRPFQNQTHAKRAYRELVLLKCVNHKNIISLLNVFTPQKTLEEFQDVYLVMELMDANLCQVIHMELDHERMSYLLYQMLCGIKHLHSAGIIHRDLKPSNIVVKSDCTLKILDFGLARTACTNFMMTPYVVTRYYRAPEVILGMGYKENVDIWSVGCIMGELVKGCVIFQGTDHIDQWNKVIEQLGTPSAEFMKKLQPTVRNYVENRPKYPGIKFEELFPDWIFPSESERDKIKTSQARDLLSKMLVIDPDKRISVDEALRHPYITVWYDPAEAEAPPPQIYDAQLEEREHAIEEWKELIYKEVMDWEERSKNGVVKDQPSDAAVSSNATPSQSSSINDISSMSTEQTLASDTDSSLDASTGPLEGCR
p38, sequence (Q16539 whole entry): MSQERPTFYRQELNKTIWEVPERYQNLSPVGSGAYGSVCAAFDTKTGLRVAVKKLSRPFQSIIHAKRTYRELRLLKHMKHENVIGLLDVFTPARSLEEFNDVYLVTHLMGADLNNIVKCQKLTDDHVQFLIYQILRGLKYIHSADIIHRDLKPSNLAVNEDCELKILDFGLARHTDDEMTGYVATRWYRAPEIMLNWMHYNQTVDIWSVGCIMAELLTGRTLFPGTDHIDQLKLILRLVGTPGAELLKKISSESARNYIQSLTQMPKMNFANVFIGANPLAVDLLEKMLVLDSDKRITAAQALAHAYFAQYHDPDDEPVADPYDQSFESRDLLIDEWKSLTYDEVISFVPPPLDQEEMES
GST-JNK3, sequence (P53779 whole entry): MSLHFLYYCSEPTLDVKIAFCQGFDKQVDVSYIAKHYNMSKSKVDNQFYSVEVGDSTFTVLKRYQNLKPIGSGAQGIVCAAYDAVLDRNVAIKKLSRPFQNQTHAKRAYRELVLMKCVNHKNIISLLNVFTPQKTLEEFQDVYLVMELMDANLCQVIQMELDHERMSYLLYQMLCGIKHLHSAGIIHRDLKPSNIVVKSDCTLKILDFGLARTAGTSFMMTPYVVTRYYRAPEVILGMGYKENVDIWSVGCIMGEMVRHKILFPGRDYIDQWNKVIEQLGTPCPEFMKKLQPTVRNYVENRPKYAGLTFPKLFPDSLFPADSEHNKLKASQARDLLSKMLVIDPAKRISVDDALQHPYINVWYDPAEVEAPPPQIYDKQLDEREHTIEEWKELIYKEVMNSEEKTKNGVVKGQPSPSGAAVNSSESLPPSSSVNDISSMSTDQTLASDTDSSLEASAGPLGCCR
ERK2, sequence (P28482 whole entry, species assumed): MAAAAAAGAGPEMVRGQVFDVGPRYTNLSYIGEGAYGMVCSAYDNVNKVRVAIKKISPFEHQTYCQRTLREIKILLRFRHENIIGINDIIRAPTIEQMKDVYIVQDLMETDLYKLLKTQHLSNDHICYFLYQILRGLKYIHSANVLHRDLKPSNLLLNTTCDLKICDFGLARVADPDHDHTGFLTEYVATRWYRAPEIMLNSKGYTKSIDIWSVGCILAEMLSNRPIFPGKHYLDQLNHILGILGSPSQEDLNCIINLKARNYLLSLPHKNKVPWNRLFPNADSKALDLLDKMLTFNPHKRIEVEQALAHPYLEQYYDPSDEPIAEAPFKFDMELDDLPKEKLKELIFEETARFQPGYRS

O=C(NCc1ccc(S(=O)(=O)NNC(=O)c2csc(-c3ccc(C4SCCS4)cc3)n2)s1)c1ccc(Cl)cc1 [Example 1, 4-chloro-N-[(5-{[2-({2-[4-(1,3-dithiolan-2-yl)phenyl]-1,3-thiazol-4-yl}carbonyl)-hydrazino]sulfonyl}thien-2-yl)methyl]benzamide]
IC50 (GST-JNK3): 210 nM
inhibition at 10 µM (Hlr c-Jun HeLa cells): > 20%
IC50 (ERK2): > 30000 nM
IC50 (GST-JNK2): 370 nM
IC50 (p38): > 30000 nM
inhibition at 3 µM [1]: > 30%

O=C(NCc1ccc(S(=O)(=O)NNC(=O)c2csc(COc3ccccc3Cl)n2)s1)c1ccc(Cl)cc1 [Example 13, 4-chloro-N-[(5-{[2-({2-[(2-chlorophenoxy)methyl]-1,3-thiazol-4-y1}carbonyl)hydrazino]sulfonyl}thien-2-yl)methyl]benzamide]
IC50 (GST-JNK3): 310 nM
inhibition at 10 µM (Hlr c-Jun HeLa cells): > 20%
IC50 (ERK2): > 30000 nM
IC50 (GST-JNK2): 970 nM
IC50 (p38): > 30000 nM
inhibition at 3 µM [1]: > 30%

O=C(CCCNc1ncc(C(F)(F)F)cc1Cl)NNS(=O)(=O)c1ccc(CNC(=O)c2ccccc2O)s1 [Example 20, N-[(5-{[2-(4-{[3-chloro-5-(trifluoromethyl)pyridin-2-yl]amino}butanoyl)hydrazino]sulfonyl}thien-2-yl)methyl]-2-hydroxybenzamide]
melting point: 174.5 to 175.5 °C

O=C(CCCNc1ncc(C(F)(F)F)cc1Cl)NNS(=O)(=O)c1ccc(CNC(=O)c2ccc[nH]c2=O)s1 [Example 75, N-[(5-{[2-(4-{[3-chloro-5-(trifluoromethyl)pyridin-2-yl]amino}butanoyl)hydrazino]sulfonyl}thien-2-yl)methyl]-2-oxo-1,2-dihydropyridine-3-carboxamide]
IC50 (GST-JNK3): 410 nM
inhibition at 10 µM (Hlr c-Jun HeLa cells): > 20%
IC50 (ERK2): > 30000 nM
IC50 (GST-JNK2): 560 nM
IC50 (p38): > 30000 nM
inhibition at 3 µM [1]: > 30%

O=C(CCCNc1ncc(C(F)(F)F)cc1Cl)NNS(=O)(=O)c1ccc(CNC(=O)c2ccc(Cl)cc2)cc1 [Example 80, 4-chloro-N-(4-{[2-(4-{[3-chloro-5-(trifluoromethyl)pyridin-2-yl]amino}butanoyl)hydrazino]sulfonyl}benzyl)benzamide]
IC50 (GST-JNK3): 250 nM
inhibition at 10 µM (Hlr c-Jun HeLa cells): > 20%
IC50 (ERK2): > 30000 nM
IC50 (GST-JNK2): 1020 nM
IC50 (p38): > 30000 nM
inhibition at 3 µM [1]: > 30%
